Reference: patent US20250382332A1, “NOVEL ALPHA-FACTOR BASED PEPTIDES WITH ANTIFUNGAL ACTIVITY” (INVAIO SCIENCES, INC., priority 2024, published 2025)
Peptide text beside a SMILES is read from it.

Test system: Botrytis cinerea (B05.10)
Experiment: Resazurin antifungal assay of 23 alpha-factor peptides (dimers, hybrids) towards Botrytis (Example 15, Table 6)
Type: cell-based
Conditions: resazurin assay, % inhibition of fungal growth, Botrytis cinerea B05.10; for Inhibition at 10 μM: peptide 10 μM; for Inhibition at 20 μM: peptide 20 μM; for Inhibition at 50 μM: peptide 50 μM
Method: The antifungal activity of […] alpha-factor peptide variants towards Botrytis was tested. Experimental design:
Peptides corresponding to SEQ ID NO: 261-264 and 401-420 were chemically synthesized using the solid-phase synthesis method and resuspended in water to a stock solution of 1 mM. The stock solution was aliquoted in cryovials and stored at −80° C.
The Botrytis cinerea culture (B05.10) isolate was acquired from the Centraalbureau voor Schimmelcultures, the Netherlands. The Botrytis fungus was propagated on 0.5% V8 agar plates (200 ml V8 Juice, 3 g CaCO3, 15 g agar, 800-ml millipore water) at 20° C., in a 12 h photoperiod for 21 days.
Fungal conidia were harvested by scraping a Botrytis plate flooded with 1 ml water with 0.1% Tween 80 solution. Conidia were then collected in a 50 ml falcon tube by passing the solution through a 40 micron filter. The solution was then centrifuged at 6000 rpm and the pellet was resuspended in 1 ml of 20% glycerol. The conidia concentration of the resulting solution was counted using a hemocytometer. The stock was diluted to […] using 20% glycerol and frozen in 100 μl aliquots in −80° C. until further use.
Peptides were tested for activity against Botrytis, using the resazurin assay. For this, fungal stock conidia was first diluted to 5000 conidia/well. 50 μl of the spore suspension was added to each well of the sterile 96-well clear bottom testing plate and mixed with 50 μl of peptide solutions to a final concentration of 100, 50, 20, 10, 5 and 2.5 μM. The plate was incubated for 24 h at 20° C. After 24 h, 10 μl of resazurin dye was added to the microtiter plate and incubated again for […]. Fluorescence was measured at 570/620 nm after 4 h of incubation with resazurin.
Growth inhibition was calculated by subtracting the fluorescence values of conidia only wells from sample wells and depicted as % inhibition of fungal growth. Four technical replicates were used for all treatments.

SMILES | Inhibition at 10 μM | Inhibition at 20 μM | Inhibition at 50 μM | Inhibition at 2.5 μM (peptide 2.5 μM) | Inhibition at 5 μM (peptide 5 μM) | Inhibition at 100 μM (peptide 100 μM)
CC[C@H](C)[C@H](NC(=O)[C@H](CCC(N)=O)NC(=O)[C@H](CC(C)C)NC(=O)[C@H](CO)NC(=O)[C@H](Cc1c[nH]cn1)NC(=O)[C@@H](N)Cc1c[nH]c2ccccc12)C(=O)N[C@@H](CCCCN)C(=O)N[C@@H](CCCCN)C(=O)NCC(=O)N[C@@H](CCC(N)=O)C(=O)N1CCC[C@H]1C(=O)N[C@@H](CCSC)C(=O)N[C@@H](Cc1ccc(O)cc1)C(=O)O [compound 407] (H-WHSLQIKKGQPMY-OH; N-terminus and C-terminus assumed) | <90% | <90% | 100% |  |  | 
CSCC[C@H](NC(=O)[C@@H]1CCCN1C(=O)[C@H](CCC(N)=O)NC(=O)CNC(=O)[C@H](Cc1c[nH]c2ccccc12)NC(=O)[C@H](CC(N)=O)NC(=O)[C@H](Cc1ccccc1)NC(=O)[C@H](CCC(N)=O)NC(=O)[C@H](CC(C)C)NC(=O)[C@H](CC(C)C)NC(=O)[C@H](Cc1c[nH]cn1)NC(=O)[C@@H](N)Cc1c[nH]c2ccccc12)C(=O)N[C@@H](Cc1ccc(O)cc1)C(=O)O [compound 408] (H-WHLLQFNWGQPMY-OH; N-terminus and C-terminus assumed) | <90% | <90% | 100% |  |  | 
CSCC[C@H](NC(=O)[C@H](CO)NC(=O)[C@H](CCC(N)=O)NC(=O)CNC(=O)[C@H](CCCNC(=N)N)NC(=O)[C@H](CCCCN)NC(=O)[C@H](CC(C)C)NC(=O)[C@@H](NC(=O)[C@H](CC(C)C)NC(=O)[C@@H](NC(=O)[C@@H](NC(=O)[C@@H](N)Cc1c[nH]c2ccccc12)[C@@H](C)O)C(C)C)[C@@H](C)O)C(=O)N[C@@H](Cc1ccc(O)cc1)C(=O)O [compound 409] (H-WTVLTLKRGQSMY-OH; N-terminus and C-terminus assumed) | 97.7% | 100% | 100% | <90% | <90% | 
CSCC[C@H](NC(=O)[C@@H]1CCCN1C(=O)[C@H](CCC(N)=O)NC(=O)CNC(=O)[C@@H]1CCCN1C(=O)[C@H](CCCNC(=N)N)NC(=O)[C@H](Cc1ccccc1)NC(=O)[C@H](CCCNC(=N)N)NC(=O)[C@H](CC(C)C)NC(=O)[C@H](Cc1c[nH]c2ccccc12)NC(=O)[C@H](Cc1c[nH]cn1)NC(=O)[C@@H](N)CCCCN)C(=O)N[C@@H](Cc1ccc(O)cc1)C(=O)O [compound 410] (H-KHWLRFRPGQPMY-OH; N-terminus and C-terminus assumed) | <90% | 100% | 100% |  |  | 
CSCC[C@H](NC(=O)[C@@H]1CCCN1C(=O)[C@H](CCC(N)=O)NC(=O)CNC(=O)[C@@H]1CCCN1C(=O)[C@H](Cc1c[nH]c2ccccc12)NC(=O)[C@H](Cc1ccccc1)NC(=O)[C@H](CCCNC(=N)N)NC(=O)[C@H](CC(C)C)NC(=O)[C@H](Cc1c[nH]c2ccccc12)NC(=O)[C@H](Cc1c[nH]cn1)NC(=O)[C@@H](N)CCCCN)C(=O)N[C@@H](Cc1ccc(O)cc1)C(=O)O [compound 411] (H-KHWLRFWPGQPMY-OH; N-terminus and C-terminus assumed) | <90% | <90% | 100% |  |  | 
CC[C@H](C)[C@H](NC(=O)[C@H](CCCNC(=N)N)NC(=O)[C@H](CC(C)C)NC(=O)[C@H](Cc1c[nH]c2ccccc12)NC(=O)[C@H](Cc1c[nH]cn1)NC(=O)[C@@H](N)CCCCN)C(=O)N[C@@H](Cc1c[nH]c2ccccc12)C(=O)N1CCC[C@H]1C(=O)NCC(=O)N[C@@H](CCC(N)=O)C(=O)N1CCC[C@H]1C(=O)N[C@@H](CCSC)C(=O)N[C@@H](Cc1ccc(O)cc1)C(=O)O [compound 412] (H-KHWLRIWPGQPMY-OH; N-terminus and C-terminus assumed) | <90% | <90% | 100% |  |  | 
CSCC[C@H](NC(=O)[C@H](Cc1ccc(O)cc1)NC(=O)[C@H](CCCNC(=N)N)NC(=O)[C@H](CCCNC(=N)N)NC(=O)[C@H](CCCNC(=N)N)NC(=O)[C@H](CCCNC(=N)N)NC(=O)[C@H](CCCNC(=N)N)NC(=O)[C@H](CCCNC(=N)N)NC(=O)[C@H](CCCNC(=N)N)NC(=O)[C@@H](N)CCCNC(=N)N)C(=O)N1CCC[C@H]1C(=O)N[C@@H](CCC(N)=O)C(=O)NCC(=O)N1CCC[C@H]1C(=O)N[C@@H](CCCCN)C(=O)N[C@@H](CC(C)C)C(=O)N[C@@H](CCC(N)=O)C(=O)N[C@@H](CC(C)C)C(=O)N[C@@H](Cc1c[nH]c2ccccc12)C(=O)N[C@@H](Cc1c[nH]cn1)C(=O)N[C@@H](Cc1c[nH]c2ccccc12)C(=O)O [compound 420] (H-RRRRRRRRYMPQGPKLQLWHW-OH; N-terminus and C-terminus assumed) |  |  | 100% |  |  | 100%
